Measured values as given in patent publication US20230339886A1 (University of Florida Research Foundation, Incorporated, priority 2020, published 2023).
pEC50: −log10 of the molar value.

These compounds were tested against T1, REV-ERBα LBD (human; residues 281-614 Δ324-422) (Homo sapiens, UniProt P20393, DEL324-422) (assay: TR-FRET corepressor interaction assay (REV-ERBα LBD, FITC-SMRT peptide)). Conditions: Table 2, read-out: REVERBα agonism (EC50 class, FRET assay).
T1 construct: 6×Histag-REV-ERBα LBD (human; residues 281-614 Δ324-422); made in house; host or cells: Escherichia coli
Format: biochemical
How it was run: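 Compound serial dilutions (in DMSO, triplicate) incubated 2 h at 4 °C; Tb donor excited at 340 nm, emission read at 495 nm and FITC acceptor at 520 nm. TR-FRET ratio (520/495 nm) plotted against ligand concentration and fitted to a sigmoidal dose-response curve.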

T1 sequence (P20393 with tags, fused parts or gaps DEL324-422): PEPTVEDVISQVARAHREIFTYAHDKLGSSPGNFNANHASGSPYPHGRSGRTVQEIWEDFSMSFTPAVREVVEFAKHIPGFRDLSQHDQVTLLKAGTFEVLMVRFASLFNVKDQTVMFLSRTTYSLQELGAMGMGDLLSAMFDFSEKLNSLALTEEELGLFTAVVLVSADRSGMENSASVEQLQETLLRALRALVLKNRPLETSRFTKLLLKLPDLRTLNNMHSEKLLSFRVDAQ
T1 sequence (Q9Y618 2335-2356 partner limits assumed): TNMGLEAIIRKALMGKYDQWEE

Row | pEC50 | Compound
1 | > 6.30 | CC(C)(C)Cc1cn(CCNS(=O)(=O)C2CC2)c2ccc(-c3ccccc3Cl)cc12 [Example 213, N-(2-(5-(2-chlorophenyl)-3-neopentyl-1H-indol-1-yl)ethyl)cyclopropanesulfonamide]
2 | < 5.52 | CC(C)(C)Cc1cn(CCNS(=O)(=O)C2CC2)c2ccc(-c3nccc4ccccc34)cc12 [Example 215, N-(2-(5-(isoquinolin-1-yl)-3-neopentyl-1H-indol-1-yl)ethyl)cyclopropane-sulfonamide]
3 | 5.52 to 6.30 | CC(C)(C)Cc1cn(CCNS(=O)(=O)C2CC2)c2ccc(-c3cccc4ccncc34)cc12 [Example 217, N-(2-(5-(isoquinolin-8-yl)-3-neopentyl-1H-indol-1-yl)ethyl)cyclopropane-sulfonamide]
4 | 5.52 to 6.30 | CC(C)(C)Cc1cn(CCNS(=O)(=O)C2CC2)c2ccc(-c3cncc4ccccc34)cc12 [Example 218, N-(2-(5-(isoquinolin-4-yl)-3-neopentyl-1H-indol-1-yl)ethyl)cyclopropane-sulfonamide]
5 | > 6.30 | CC(C)(C)Cc1cn(CCNS(=O)(=O)C2CC2)c2ccc(-c3ccc(F)c4ccccc34)cc12 [Example 219, N-(2-(5-(4-fluoronaphthalen-1-yl)-3-neopentyl-1H-indol-1-yl)ethyl)cyclopropanesulfonamide]
6 | 5.52 to 6.30 | CC(C)Cn1cc([C@@H](NS(=O)(=O)C2CC2)C(F)(F)F)c2ccc(-c3ccccc3C(F)(F)F)cc21 [Example 222, (R)—N-(2,2,2-trifluoro-1-(1-isobutyl-6-(2-(trifluoromethyl)phenyl)-1H-indol-3-yl)ethyl)cyclopropanesulfonamide]
7 | > 6.30 | CC(C)Cn1cc(C(NS(=O)(=O)N(C)C)C(F)(F)F)c2ccc(-c3ccccc3C(F)(F)F)cc21 (stereo not drawn) [Example 223, dimethyl({2,2,2-trifluoro-1-[1-(2-methylpropyl)-6-[2-(trifluoromethyl)phenyl]-1H-indol-3-yl]ethyl}sulfamoyl)amine]
8 | 5.52 to 6.30 | CC(C)Cn1cc(C(NS(=O)(=O)C(C)C)C(F)(F)F)c2ccc(-c3ccccc3C(F)(F)F)cc21 (stereo not drawn) [Example 224, N-(2,2,2-trifluoro-1-(1-isobutyl-6-(2-(trifluoromethyl)phenyl)-1H-indol-3-yl)ethyl)propane-2-sulfonamide]
9 | 5.52 to 6.30 | CC(C)(C)Cc1cn(CCNS(=O)(=O)C2CC2)c2ccc(-c3ccccc3)cc12 [Example 225, N-(2-(3-neopentyl-5-phenyl-1H-indol-1-yl)ethyl)cyclopropanesulfonamide]
10 | > 6.30 | CC(C)(C)Cc1cn(CCNS(=O)(=O)C2CC2)c2ccc(-c3cccc(F)c3Cl)cc12 [Example 228, N-(2-(5-(2-chloro-3-fluorophenyl)-3-neopentyl-1H-indol-1-yl)ethyl)cyclopropane sulfonamide]
11 | > 6.30 | CC(C)(C)Cc1cn(CCNS(=O)(=O)C2CC2)c2ccc(-c3ccc(N)c(F)c3Cl)cc12 [Example 229, N-(2-(5-(4-amino-2-chloro-3-fluorophenyl)-3-neopentyl-1H-indol-1-yl)ethyl) cyclo-propanesulfonamide]
12 | 5.52 to 6.30 | CC(C)(C)Cc1cn(CCNS(=O)(=O)C2CC2)c2ccc(C(F)(F)F)cc12 [Example 292, N-(2-(3-neopentyl-5-(trifluoromethyl)-1H-indol-1-yl)ethyl)cyclopropanesulfonamide]
13 | < 5.52 | CC(C)(C)Cc1cn(CCNS(=O)(=O)C2CC2)c2cc(F)c(Br)cc12 [Example 293, N-(2-(5-bromo-6-fluoro-3-neopentyl-1H-indol-1-yl)ethyl)cyclopropanesulfonamide]
14 | > 6.30 | CC(C)(C)Cc1cn(CCNS(=O)(=O)C2CC2)c2cc(F)c(-c3ccc(F)cc3C(F)(F)F)cc12 [Example 294]
15 | 5.52 to 6.30 | CC(C)(C)Cc1cn(CCNS(=O)(=O)C2CC2)c2ccc(-c3ccc(F)cc3C(F)(F)F)c(F)c12 [Example 295]
16 | > 6.30 | Cc1ccccc1-c1ccc2c(c1)c(CC(C)(C)C)cn2CCNS(=O)(=O)C1CC1 [Example 302, N-(2-(3-neopentyl-5-(o-tolyl)-1H-indol-1-yl)ethyl)cyclopropanesulfonamide]
17 | > 6.30 | COc1ccccc1-c1ccc2c(c1)c(CC(C)(C)C)cn2CCNS(=O)(=O)C1CC1 [Example 303, N-(2-(5-(2-methoxyphenyl)-3-neopentyl-1H-indol-1-yl)ethyl)cyclopropane-sulfonamide]
18 | 5.52 to 6.30 | CC(C)(C)Cc1cn(CCNS(=O)(=O)C2CC2)c2ccc(-c3ccccn3)cc12 [Example 304, N-(2-(3-neopentyl-5-(pyridin-2-yl)-1H-indol-1-yl)ethyl)cyclopropanesulfonamide]

Row | pEC50 | Compound
19 | 5.52 to 6.30 | CC(C)(C)Cc1cn(CCNS(=O)(=O)C2CC2)c2ccc(-c3cccnc3)cc12 [Example 305, N-(2-(3-neopentyl-5-(pyridin-3-yl)-1H-indol-1-yl)ethyl)cyclopropanesulfonamide]
20 | > 6.30 | CC(C)Cn1cc([C@H](NS(=O)(=O)C2CC2)C(F)(F)F)c2ccc(Br)cc21 [Example 306, (S)—N-(1-(6-bromo-1-isobutyl-1H-indol-3-yl)-2,2,2-trifluoroethyl)cyclopropanesulfonamide]
21 | > 6.30 | CC(C)Cn1cc([C@H](NS(=O)(=O)C2CC2)C(F)(F)F)c2ccc(-c3ccncc3)cc21 [Example 307, (S)—N-(2,2,2-trifluoro-1-(1-isobutyl-6-(pyridin-4-yl)-1H-indol-3-yl)ethyl)cyclopropanesulfonamide]
22 | 5.52 to 6.30 | CC(C)Cn1cc([C@H](NS(=O)(=O)C2CC2)C(F)(F)F)c2ccc(-c3ccc(F)cc3)cc21 [Example 308, (S)—N-(2,2,2-trifluoro-1-(6-(4-fluorophenyl)-1-isobutyl-1H-indol-3-yl)ethyl)cyclopropanesulfonamide]
23 | > 6.30 | CC(C)Cn1cc([C@H](NS(=O)(=O)C2CC2)C(F)(F)F)c2ccc(-c3ccccc3Cl)cc21 [Example 311, (S)—N-(1-(6-(2-chlorophenyl)-1-isobutyl-1H-indol-3-yl)-2,2,2-trifluoroethyl)cyclopropanesulfonamide]
24 | > 6.30 | Cc1cc2c(cc1F)c([C@H](NS(=O)(=O)C1CC1)C(F)(F)F)cn2CC(C)C [Example 312, (S)—N-(2,2,2-trifluoro-1-(5-fluoro-1-isobutyl-6-methyl-1H-indol-3-yl)ethyl)cyclopropanesulfonamide]
25 | > 6.30 | CC(C)Cn1cc([C@H](NS(=O)(=O)C2CC2)C(F)(F)F)c2cc(F)c(-c3ccccc3Cl)cc21 [Example 314, (S)—N-(1-(6-(2-chlorophenyl)-5-fluoro-1-isobutyl-1H-indol-3-yl)-2,2,2-trifluoroethyl)cyclopropanesulfonamide]
26 | > 6.30 | CC(C)Cn1cc([C@H](NS(=O)(=O)C2CC2)C(F)(F)F)c2cc(F)c(C3CC3)cc21 [Example 315, (S)—N-(1-(6-cyclopropyl-5-fluoro-1-isobutyl-1H-indol-3-yl)-2,2,2-trifluoroethyl)cyclopropanesulfonamide]
27 | > 6.30 | CC(C)(C)Cn1cc([C@H](NS(=O)(=O)C2CC2)C(F)(F)F)c2cc(F)c(-c3ccccc3C(F)(F)F)cc21 [Example 319, (S)—N-(2,2,2-trifluoro-1-(5-fluoro-1-neopentyl-6-(2-(trifluoromethyl)phenyl)-1H-indol-3-yl)ethyl)cyclopropanesulfonamide]
28 | > 6.30 | CC(C)Cn1cc([C@H](NS(=O)(=O)N(C)C)C(F)(F)F)c2cc(F)c(-c3ccccc3C(F)(F)F)cc21 [Example 320, dimethyl({[(1S)-2,2,2-trifluoro-1-[5-fluoro-1-(2-methylpropyl)-6-[2-(trifluoromethyl)phenyl]-1H-indol-3-yl]ethyl]sulfamoyl})amine]
29 | > 6.30 | CC(C)Cn1cc([C@H](NS(=O)(=O)C2CC2)C(F)(F)F)c2ccc(-c3ccc(F)cc3C(F)(F)F)cc21 [Example 324, (S)—N-(2,2,2-trifluoro-1-(6-(4-fluoro-2-(trifluoromethyl)phenyl)-1-isobutyl-1H-indol-3-yl)ethyl)cyclopropanesulfonamide]
30 | > 6.30 | CC(C)Cn1cc([C@H](NS(=O)(=O)C2CC2)C(F)(F)F)c2ccc(-c3ccccc3C(F)(F)F)cc21 [Example 325]
31 | > 6.30 | CC(C)Cn1cc([C@H](NS(=O)(=O)N(C)C)C(F)(F)F)c2cc(F)c(-c3ccccc3Cl)cc21 [Example 326, {[(1S)-1-[6-(2-chlorophenyl)-5-fluoro-1-(2-methylpropyl)-1H-indol-3-yl]-2,2,2-trifluoroethyl]sulfamoyl}dimethylamine]
32 | > 6.30 | CC(C)(C)Cn1cc([C@H](NS(=O)(=O)C2CC2)C(F)(F)F)c2cc(F)c(C3CC3)cc21 [Example 327, (S)—N-(1-(6-cyclopropyl-5-fluoro-1-neopentyl-1H-indol-3-yl)-2,2,2-trifluoroethyl)cyclopropanesulfonamide]
33 | > 6.30 | CN(C)S(=O)(=O)N[C@@H](c1cn(CC(C)(C)C)c2cc(-c3ccccc3Cl)c(F)cc12)C(F)(F)F [Example 330, {[(1S)-1-[6-(2-chlorophenyl)-1-(2,2-dimethylpropyl)-5-fluoro-1H-indol-3-yl]-2,2,2-trifluoroethyl]sulfamoyl}dimethylamine]
34 | > 6.30 | CC(C)(C)Cn1cc([C@H](NS(=O)(=O)C2CC2)C(F)(F)F)c2ccc(-c3ccccc3Cl)cc21 [Example 332, (S)—N-(1-(6-(2-chlorophenyl)-1-neopentyl-1H-indol-3-yl)-2,2,2-trifluoroethyl)cyclopropanesulfonamide]
35 | 5.52 to 6.30 | CC(C)Cn1cc([C@H](NS(=O)(=O)C2CC2)C(F)(F)F)c2cc(F)c(C(C)C)cc21 [Example 334, (S)—N-(2,2,2-trifluoro-1-(5-fluoro-1-isobutyl-6-isopropyl-1H-indol-3-yl)ethyl)cyclopropanesulfonamide]
36 | > 6.30 | CC(C)c1ccc2c([C@H](NS(=O)(=O)C3CC3)C(F)(F)F)cn(CC(C)(C)C)c2c1 [Example 335, (S)—N-(2,2,2-trifluoro-1-(6-isopropyl-1-neopentyl-1H-indol-3-yl)ethyl)cyclopropanesulfonamide]
